Data: patent US10670605B2, “Cysteine reactive probes and uses thereof” (The Scripps Research Institute, priority 2015, dated 2020)

Tests used:
Assay in all cases: Competitive isoTOP-ABPP in situ (fragment-treated cells)
Format in all cases: cell-based
[1] = target: T1, cysteines in MDA-MB-231 and Ramos cells (Homo sapiens, UniProt Q6ICB0)
T1 sequence (Q6ICB0 1-168): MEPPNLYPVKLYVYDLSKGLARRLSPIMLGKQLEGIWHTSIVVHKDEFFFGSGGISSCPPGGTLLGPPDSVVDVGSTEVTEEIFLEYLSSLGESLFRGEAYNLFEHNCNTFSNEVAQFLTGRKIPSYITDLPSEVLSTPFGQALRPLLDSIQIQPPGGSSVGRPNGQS

[2] = target: cysteines in MDA-MB-231 and Ramos cells (Homo sapiens, UniProt Q9UJW0)
Chain of cysteines in MDA-MB-231 and Ramos cells (Homo sapiens, UniProt Q9UJW0) (Q9UJW0 whole entry): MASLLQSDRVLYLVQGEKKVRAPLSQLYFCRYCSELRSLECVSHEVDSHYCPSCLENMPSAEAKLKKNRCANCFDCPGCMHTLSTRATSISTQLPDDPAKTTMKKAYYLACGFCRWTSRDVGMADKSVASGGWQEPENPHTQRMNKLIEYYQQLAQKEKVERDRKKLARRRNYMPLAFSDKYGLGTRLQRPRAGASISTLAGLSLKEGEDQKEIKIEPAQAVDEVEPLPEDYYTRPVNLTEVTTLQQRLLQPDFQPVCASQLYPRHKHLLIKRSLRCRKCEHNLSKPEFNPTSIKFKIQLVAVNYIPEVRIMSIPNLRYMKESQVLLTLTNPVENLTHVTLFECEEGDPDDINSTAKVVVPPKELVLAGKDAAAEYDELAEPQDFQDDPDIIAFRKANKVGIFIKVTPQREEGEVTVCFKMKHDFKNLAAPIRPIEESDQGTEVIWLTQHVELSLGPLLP

[3] = target: cysteines in MDA-MB-231 and Ramos cells (Homo sapiens, UniProt P46109); settings: 200 μM, insitu
Chain of cysteines in MDA-MB-231 and Ramos cells (Homo sapiens, UniProt P46109) (P46109 whole entry): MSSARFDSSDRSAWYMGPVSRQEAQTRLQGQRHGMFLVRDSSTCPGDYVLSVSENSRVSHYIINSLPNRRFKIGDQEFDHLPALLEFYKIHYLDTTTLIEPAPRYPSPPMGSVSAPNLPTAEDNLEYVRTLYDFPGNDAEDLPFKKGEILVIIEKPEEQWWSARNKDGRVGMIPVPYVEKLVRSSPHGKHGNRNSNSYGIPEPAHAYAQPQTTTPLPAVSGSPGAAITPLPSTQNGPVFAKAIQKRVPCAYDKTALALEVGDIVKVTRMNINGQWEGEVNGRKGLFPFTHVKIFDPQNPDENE

[4] = target: T2, cysteines in MDA-MB-231 and Ramos cells (Homo sapiens, UniProt Q9NXV6)
T2 sequence (Q9NXV6 1-580): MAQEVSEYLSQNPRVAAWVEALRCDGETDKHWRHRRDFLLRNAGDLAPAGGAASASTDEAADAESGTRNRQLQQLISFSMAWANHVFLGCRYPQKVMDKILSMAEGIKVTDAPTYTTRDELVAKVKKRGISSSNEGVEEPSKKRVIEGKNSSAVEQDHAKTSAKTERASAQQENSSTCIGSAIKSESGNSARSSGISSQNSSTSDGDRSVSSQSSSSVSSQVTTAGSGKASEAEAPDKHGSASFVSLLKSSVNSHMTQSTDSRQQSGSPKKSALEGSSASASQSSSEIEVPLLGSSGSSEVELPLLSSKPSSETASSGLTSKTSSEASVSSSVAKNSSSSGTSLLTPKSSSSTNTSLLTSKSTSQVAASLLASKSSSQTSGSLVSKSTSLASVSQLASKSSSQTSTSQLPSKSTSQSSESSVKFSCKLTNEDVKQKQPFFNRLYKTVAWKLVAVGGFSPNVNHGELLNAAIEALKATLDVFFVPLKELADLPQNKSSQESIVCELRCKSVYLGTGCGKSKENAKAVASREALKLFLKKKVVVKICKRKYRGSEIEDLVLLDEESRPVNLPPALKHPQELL

[5] = target: cysteines in MDA-MB-231 and Ramos cells (Homo sapiens, UniProt Q06203); settings: for isoTOP-ABPP ratio, cysteine Q06203_C100 / isoTOP-ABPP ratio Q06203_C100: 200 μM, insitu
Chain of cysteines in MDA-MB-231 and Ramos cells (Homo sapiens, UniProt Q06203) (Q06203 12-517): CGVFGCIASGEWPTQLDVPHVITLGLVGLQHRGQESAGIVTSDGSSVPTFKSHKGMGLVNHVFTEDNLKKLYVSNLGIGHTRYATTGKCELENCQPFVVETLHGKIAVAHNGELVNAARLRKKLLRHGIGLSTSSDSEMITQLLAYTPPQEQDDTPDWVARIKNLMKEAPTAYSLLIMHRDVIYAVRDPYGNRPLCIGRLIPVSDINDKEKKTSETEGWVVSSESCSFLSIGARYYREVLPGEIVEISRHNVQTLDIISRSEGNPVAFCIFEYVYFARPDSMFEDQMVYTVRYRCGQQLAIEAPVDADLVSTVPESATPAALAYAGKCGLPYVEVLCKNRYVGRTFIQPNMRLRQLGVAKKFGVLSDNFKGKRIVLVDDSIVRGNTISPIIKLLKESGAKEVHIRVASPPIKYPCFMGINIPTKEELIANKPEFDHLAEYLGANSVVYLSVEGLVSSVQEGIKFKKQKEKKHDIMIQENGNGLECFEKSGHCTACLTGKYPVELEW

[6] = target: T3, cysteines in MDA-MB-231 and Ramos cells (Homo sapiens, UniProt O75717)
T3 sequence (O75717 1-1129): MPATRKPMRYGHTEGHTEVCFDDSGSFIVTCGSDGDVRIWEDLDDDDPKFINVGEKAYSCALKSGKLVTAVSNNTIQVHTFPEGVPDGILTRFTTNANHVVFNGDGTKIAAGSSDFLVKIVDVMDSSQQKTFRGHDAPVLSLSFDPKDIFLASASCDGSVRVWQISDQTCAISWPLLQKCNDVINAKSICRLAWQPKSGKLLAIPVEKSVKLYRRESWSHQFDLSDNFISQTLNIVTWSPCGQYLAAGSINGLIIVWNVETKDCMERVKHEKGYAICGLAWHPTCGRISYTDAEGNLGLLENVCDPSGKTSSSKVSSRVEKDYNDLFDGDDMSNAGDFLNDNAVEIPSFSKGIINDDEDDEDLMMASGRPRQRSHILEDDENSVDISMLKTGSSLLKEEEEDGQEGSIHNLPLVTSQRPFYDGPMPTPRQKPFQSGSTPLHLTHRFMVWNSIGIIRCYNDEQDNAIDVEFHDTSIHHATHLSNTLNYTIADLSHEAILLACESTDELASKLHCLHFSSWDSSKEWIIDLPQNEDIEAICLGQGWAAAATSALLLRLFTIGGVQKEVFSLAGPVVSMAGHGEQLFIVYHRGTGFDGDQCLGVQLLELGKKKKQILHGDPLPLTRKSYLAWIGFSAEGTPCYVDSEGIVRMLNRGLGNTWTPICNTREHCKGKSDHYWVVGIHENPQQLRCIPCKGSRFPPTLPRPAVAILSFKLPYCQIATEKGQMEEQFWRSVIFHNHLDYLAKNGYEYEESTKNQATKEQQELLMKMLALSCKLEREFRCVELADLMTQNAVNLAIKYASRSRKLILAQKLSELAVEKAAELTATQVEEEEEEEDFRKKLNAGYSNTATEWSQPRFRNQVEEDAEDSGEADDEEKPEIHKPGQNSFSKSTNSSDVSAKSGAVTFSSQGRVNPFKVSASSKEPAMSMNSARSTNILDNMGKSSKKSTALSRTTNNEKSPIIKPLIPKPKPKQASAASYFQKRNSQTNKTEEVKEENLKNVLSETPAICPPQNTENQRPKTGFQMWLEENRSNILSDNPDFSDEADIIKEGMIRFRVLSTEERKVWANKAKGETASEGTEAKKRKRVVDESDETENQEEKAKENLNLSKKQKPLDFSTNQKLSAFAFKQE

[7] = target: T4, cysteines in MDA-MB-231 and Ramos cells (Homo sapiens, UniProt O75439)
T4 sequence (O75439 44-489): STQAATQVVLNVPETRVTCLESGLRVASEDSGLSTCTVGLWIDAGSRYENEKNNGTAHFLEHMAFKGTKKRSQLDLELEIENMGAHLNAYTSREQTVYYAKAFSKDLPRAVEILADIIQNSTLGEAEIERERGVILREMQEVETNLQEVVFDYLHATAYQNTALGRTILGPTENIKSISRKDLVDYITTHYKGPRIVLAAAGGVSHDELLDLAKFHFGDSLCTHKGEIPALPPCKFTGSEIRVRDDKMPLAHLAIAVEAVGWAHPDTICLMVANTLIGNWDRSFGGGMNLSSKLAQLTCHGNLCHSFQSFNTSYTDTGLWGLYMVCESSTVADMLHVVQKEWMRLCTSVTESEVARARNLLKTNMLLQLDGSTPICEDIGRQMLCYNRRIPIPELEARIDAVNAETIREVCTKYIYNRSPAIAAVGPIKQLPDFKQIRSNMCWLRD

SMILES: COc1ccc2c(c1)CCCN2C(=O)CCl [compound 2]
- isoTOP-ABPP reactivity Q6ICB0_C108 DESII ([1]; 200 μM, insitu, 231): 20.0
- isoTOP-ABPP reactivity Q9UJW0_C258 DCTN4 ([2]; 200 μM, insitu, 231): 4.0
- isoTOP-ABPP reactivity P46109_0249 CRKL [3]; 231: 20.0
- isoTOP-ABPP reactivity Q9NXV6_C516 CDKN2AEP ([4]; 200 μM, insitu, 231): 20.0

SMILES: COc1ccc(C2CC(c3cccs3)=NN2C(=O)CCl)cc1 (stereo not shown) [compound 4]
- isoTOP-ABPP reactivity Q06203_C100 PPAT ([5]; 100 μM in situ 231): 1.7

SMILES: COc1cc2c(cc1OC)CN(C(=O)CCl)CC2 [compound 8]
- isoTOP-ABPP reactivity Q6ICB0_C108 DESII ([1]; 200 μM, insitu, 231): 20.0
- isoTOP-ABPP reactivity O75717_C773 WDHDl ([6]; 200 μM, insitu, 231): 4.2
- isoTOP-ABPP reactivity Q9UJW0_C258 DCTN4 ([2]; 200 μM, insitu, 231): 20.0

SMILES: O=C(CCl)N1CCC(Cc2ccccc2)CC1 [compound 9]
- isoTOP-ABPP reactivity P46109_0249 CRKL [3]; 231: 6.7
- isoTOP-ABPP reactivity Q9NXV6_C516 CDKN2AEP ([4]; 200 μM, insitu, 231): 6.6

SMILES: O=C(CCl)N1CCN(S(=O)(=O)c2ccccc2F)CC1 [compound 10]
- isoTOP-ABPP ratio, cysteine Q06203_C100 ([5]; ramos): 20.0
- isoTOP-ABPP ratio, cysteine O75717_C773 ([6]; 200 μM, insitu, 231): 2.2
- isoTOP-ABPP ratio Q9UJW0_C258 ([2]; 200 μM, insitu, 231): 20.0
- isoTOP-ABPP ratio Q9UJW0_C258 ([2]; 200 μM, insitu, ramos): 20.0
- isoTOP-ABPP ratio, cysteine O75439_C265 ([7]; 200 μM, insitu, ramos): 2.1
- isoTOP-ABPP ratio P46109_C249 [3]; 231: 20.0
- isoTOP-ABPP ratio Q9NXV6_C516 ([4]; 200 μM, insitu, 231): 7.7

SMILES: Cn1cc(S(=O)(=O)N2CCOCC2)cc1C(=O)NC(=O)CCl [compound 11]
- isoTOP-ABPP ratio Q6ICB0_C108 ([1]; 100 μM in situ 231): 0.7
- isoTOP-ABPP ratio, cysteine O75717_C773 ([6]; 100 μM in situ 231): 1.2
- isoTOP-ABPP ratio Q9UJW0_C258 ([2]; 100 μM in situ 231): 20.0
- isoTOP-ABPP ratio, cysteine O75439_C265 ([7]; 100 μM in situ 231): 1.0
- isoTOP-ABPP ratio Q9NXV6_C516 ([4]; 100 μM in situ 231): 1.0

SMILES: O=C(CCl)NC(=O)NC12CC3CC(CC(C3)C1)C2 [compound 12]
- isoTOP-ABPP ratio Q9UJW0_C258 ([2]; 200 μM, insitu, 231): 20.0
- isoTOP-ABPP ratio P46109_C249 [3]; 231: 20.0
- isoTOP-ABPP ratio Q9NXV6_C516 ([4]; 200 μM, insitu, 231): 3.3

SMILES: O=C(CCl)NCCc1c[nH]c2ccccc12 [compound 13]
- isoTOP-ABPP ratio Q6ICB0_C108 ([1]; 200 μM, insitu, ramos): 4.0
- isoTOP-ABPP ratio, cysteine Q06203_C100 ([5]; ramos): 2.0
- isoTOP-ABPP ratio, cysteine O75717_C773 ([6]; 200 μM, insitu, 231): 1.1
- isoTOP-ABPP ratio Q9UJW0_C258 ([2]; 200 μM, insitu, ramos): 1.9
- isoTOP-ABPP ratio P46109_C249 ([3]; ramos): 1.8
- isoTOP-ABPP ratio Q9NXV6_C516 ([4]; 200 μM, insitu, 231): 2.4
- isoTOP-ABPP ratio Q9NXV6_C516 ([4]; 200 μM, insitu, ramos): 1.6

SMILES: O=C(CCl)NC12CC3CC(CC(C3)C1)C2 [compound 21]
- isoTOP-ABPP ratio Q6ICB0_C108 ([1]; 200 μM, insitu, 231): 0.6
- isoTOP-ABPP ratio P46109_C249 [3]; 231: 0.9
- isoTOP-ABPP ratio Q9NXV6_C516 ([4]; 200 μM, insitu, 231): 0.8

SMILES: CC(C)CCOCCNC(=O)CCl [compound 27]
- isoTOP-ABPP ratio Q6ICB0_C108 ([1]; 200 μM, insitu, 231): 1.9
- isoTOP-ABPP ratio Q06203_C100 [5]; 231: 0.8
- isoTOP-ABPP ratio Q9UJW0_C258 ([2]; 200 μM, insitu, 231): 0.8
- isoTOP-ABPP ratio O75439_C265 ([7]; 200 μM, insitu, 231): 1.6
- isoTOP-ABPP ratio Q9NXV6_C516 ([4]; 200 μM, insitu, 231): 1.4

SMILES: COc1ccccc1OCCNC(=O)CCl [compound 28]
- isoTOP-ABPP ratio O75439_C265 ([7]; 200 μM, insitu, 231): 0.6

SMILES: O=C(CCl)N1CCN(CC(=O)N2CCOCC2)CC1 [compound 29]
- isoTOP-ABPP ratio Q6ICB0_C108 ([1]; 200 μM, insitu, ramos): 1.0
- isoTOP-ABPP ratio Q06203_C100 ([5]; ramos): 1.6
- isoTOP-ABPP ratio Q9UJW0_C258 ([2]; 200 μM, insitu, ramos): 20.0
- isoTOP-ABPP ratio P46109_C249 ([3]; ramos): 4.2
- isoTOP-ABPP ratio Q9NXV6_C516 ([4]; 200 μM, insitu, ramos): 1.1

SMILES: C=CC(=O)N(Cc1cccnc1)c1cc(C(F)(F)F)cc(C(F)(F)F)c1 [compound 31]
- isoTOP-ABPP ratio Q6ICB0_C108 ([1]; 200 μM, insitu, 231): 1.2
- isoTOP-ABPP ratio Q6ICB0_C108 ([1]; 200 μM, insitu, ramos): 1.3
- isoTOP-ABPP ratio Q06203_C100 [5]; 231: 0.6
- isoTOP-ABPP ratio Q06203_C100 ([5]; ramos): 1.2
- isoTOP-ABPP ratio O75439_C265 ([7]; 200 μM, insitu, 231): 1.0
- isoTOP-ABPP ratio O75439_C265 ([7]; 200 μM, insitu, ramos): 1.4

SMILES: C=CC(=O)Nc1cc(F)c(N2CCN(C(=O)OC(C)(C)C)CC2)c(F)c1 [compound 38]
- isoTOP-ABPP ratio Q6ICB0_C108 ([1]; 200 μM, insitu, 231): 1.1
- isoTOP-ABPP ratio Q06203_C100 [5]; 231: 1.2
- isoTOP-ABPP ratio O75717_C773 ([6]; 200 μM, insitu, 231): 2.3
- isoTOP-ABPP ratio P46109_C249 [3]; 231: 1.6
- isoTOP-ABPP ratio Q9NXV6_C516 ([4]; 200 μM, insitu, 231): 1.8

SMILES: Cc1ccc(C=C(C#N)C(=O)NCCN2CCOCC2)cc1 [compound 41]
- isoTOP-ABPP ratio O75717_C773 ([6]; 200 μM, insitu, 231): 1.0
- isoTOP-ABPP ratio Q9UJW0_C258 ([2]; 200 μM, insitu, 231): 0.7
- isoTOP-ABPP ratio O75439_C265 ([7]; 200 μM, insitu, 231): 1.3
- isoTOP-ABPP ratio Q9NXV6_C516 ([4]; 200 μM, insitu, 231): 0.9

SMILES: CC1CCc2ccccc2N1C(=O)CCl (stereo not shown) [compound 45]
- isoTOP-ABPP ratio Q6ICB0_C108 ([1]; 200 μM, insitu, 231): 3.1
- isoTOP-ABPP ratio O75717_C773 ([6]; 200 μM, insitu, 231): 3.6
- isoTOP-ABPP ratio Q9UJW0_C258 ([2]; 200 μM, insitu, 231): 2.7
- isoTOP-ABPP ratio P46109_C249 [3]; 231: 20.0

SMILES: O=C(CCl)Nc1cccc2ncccc12 [compound 51]
- isoTOP-ABPP ratio Q6ICB0_C108 ([1]; 200 μM, insitu, 231): 1.1
- isoTOP-ABPP ratio Q9UJW0_C258 ([2]; 200 μM, insitu, 231): 1.1
